In patent publication US9695219B2, “Polypeptide having antibacterial activity and angiogenesis-inducing activity and wound-healing drug containing said polypeptide” (priority 2009, dated 2017):
Values after ≈ are worked out from the molar mass of the structure shown. Where a SMILES comes first, the peptide text is derived from it. Where no end group is shown, it is not given here. [ ]: non-standard residue; d: D form.

Tests used:
[1] = test system: Staphylococcus epidermidis; assay: MIC measurement, broth microdilution; format: cell-based; settings: 37° C. for 20 hours, tested twice, first/second value where not matched
Experimental: (§1) Further, with respect to not only the above-described strains but also various other strains, the “minimum inhibitory concentration (MIC)” was measured as follows. MIC is the lowest concentration of an agent that may inhibit the growth of a bacterium. MIC is used as a parameter for the efficacy of an antibacterial agent, for the strength of bacterial sensitivity, or the like. The bacteria can grow (proliferate) when the concentration is not higher than MIC, and cannot grow when the concentration is higher than MIC. Its measurement is carried out according to a method defined as a standard method by Japanese Society of Chemotherapy or CLINICAL AND LABORATORY […] (CLSI), but, in this Example, its measurement was carried out by a broth microdilution method in accordance with “M100-S17/M7-A7” (Performance Standards for Antimicrobial Susceptibility Testing; Seventeenth Informational Supplement, Vol. 27 No. 1) published by CLSI on January, 2007. That is, sensitivity test of agents was carried out using a microtiter plate or test tubes.
(§2) The bacteria were cultured in liquid media for 4 to 6 hours, and thereafter absorbances at A600 were measured. Bacterial suspensions were diluted with Mueller-Hinton broth (MHB) according to McFarland #0.5. Each strain was added so as to attain about 10^5 CFU/ml (final concentration). Each peptide was prepared to an optional concentration, and the solutions were serially diluted from the concentration. The polypeptide at each concentration stage was added to a microplate or test tubes, and the bacterial suspension was added thereto. Chloramphenicol, amphotericin B, ciprofloxacin, meropenem (MEPM), ciprofloxacin (CPFX), tobramycin (TOB) and oxacillin (OX) were used as positive controls. The plate was incubated at 37° C. for 20 hours, and the lowest concentration where bacterial growth was inhibited was regarded as the minimum inhibitory concentration.

MRSA (clinical strain 2) = assay: microbe, parasite or virus in culture; format: cell-based, Staphylococcus aureus; settings: Staphylococcus aureus, MRSA; 37° C. for 20 hours; tested twice, first/second value where not matched
Experimental: as §1, §2

MSSA (clinical strain 1) = assay: microbe, parasite or virus in culture; format: cell-based, Staphylococcus aureus; settings: 37° C. for 20 hours; tested twice, first/second value where not matched
Experimental: as §1, §2

MSSA (clinical strain 2) = assay: microbe, parasite or virus in culture; format: cell-based, Staphylococcus aureus; settings: Staphylococcus aureus, MSSA; 37° C. for 20 hours; tested twice, first/second value where not matched
Experimental: as §1, §2

Staphylococcus aureus = assay: microbe, parasite or virus in culture; format: cell-based; settings: 37° C. for 20 hours, tested twice, first/second value where not matched
Experimental: as §1, §2

MRSA (clinical strain 1) = assay: microbe, parasite or virus in culture; format: cell-based; settings: Staphylococcus aureus, 37° C. for 20 hours, tested twice, first/second value where not matched
Experimental: as §1, §2

[2] = test system: Pseudomonas aeruginosa (clinical strain 1); assay: microbe, parasite or virus in culture; format: cell-based; settings: 37° C. for 20 hours; tested twice, first/second value where not matched
[3] = test system: Pseudomonas aeruginosa (clinical strain 8); assay: MIC measurement, broth microdilution; format: cell-based; settings: 37° C. for 20 hours; tested twice, first/second value where not matched
[4] = test system: Pseudomonas aeruginosa (clinical strain 9); assay: MIC measurement, broth microdilution; format: cell-based; settings: 37° C. for 20 hours; tested twice, first/second value where not matched
Escherichia coli = assay: MIC measurement, broth microdilution; format: cell-based; settings: 37° C. for 20 hours; tested twice, first/second value where not matched
Experimental: as §1, §2

Fusarium solani = format: cell-based; settings: 37° C. for 20 hours; tested twice, first/second value where not matched
Experimental: as §1, §2

Pseudomonas aeruginosa = format: cell-based; settings: 37° C. for 20 hours; tested twice, first/second value where not matched
Experimental: as §1, §2

Acinetobacter baumanni = format: cell-based; settings: 37° C. for 20 hours; tested twice, first/second value where not matched
Experimental: as §1, §2

[5] = test system: Pseudomonas aeruginosa (clinical strain 6); assay: MIC measurement, broth microdilution; format: cell-based; settings: 37° C. for 20 hours; tested twice, first/second value where not matched
Fusobacterium nucleatum = assay: microbe, parasite or virus in culture; format: cell-based; settings: 37° C. for 20 hours; tested twice, first/second value where not matched
Experimental: as §1, §2

Clostridium ramosum = assay: microbe, parasite or virus in culture; format: cell-based; settings: 37° C. for 20 hours; tested twice, first/second value where not matched
Experimental: as §1, §2

[6] = test system: Pseudomonas aeruginosa (clinical strain 12); assay: MIC measurement, broth microdilution; format: cell-based; settings: 37° C. for 20 hours; tested twice, first/second value where not matched
[7] = Stability in human serum (HPLC); format: in vitro ADME; settings: 37° C.
Experimental: (§3) The stability of the polypeptides in serum was evaluated. In human serum (purchased from KAC Co., Ltd.), or in rat serum obtained by collecting blood from a rat, then leaving the collected blood to stand at room temperature followed by centrifugation, each of the peptides was dissolved so as to attain a final concentration of 500 μg/mL, and the obtained solutions were left to stand at 37° C. After leaving to stand for 3 min or 10 min, these solutions were subjected to HPLC chromatogram analysis to detect peaks of the decomposition products, and calculate the ratio of the concentration of the peptides which remained in the solutions relative to the starting concentration. In addition, the half-lives of the peptides in serum were also calculated.

[8] = Stability in rat serum (HPLC); format: in vitro ADME; settings: 37° C.
Experimental: as §3

[9] = Antibacterial activity, ATP assay (BacTiter-Glo); format: cell-based, Enterobacter aerogenes; settings: Table 7, mean values; peptides 10 μg/mL, TOB 4.0, OX 4.0, MEPM 0.5 μg/mL; 37° C. 3 hours; relative to negative control; read-out: Viability, Enterobacteria (2)
Experimental: The antibacterial activity of each of SR-08 and SR-07 polypeptides was measured using an ATP assay method. That is, using BacTiter-Glo Microbial Cell Viability Assay kit available from PROMEGA, the antibacterial activity of the peptides was evaluated from the viability of bacteria. In other words, ATP amount in viable bacteria in cases where the concentration of the peptides was 10 μg/mL was measured using a microtiter plate or test tubes. As controls, tobramycin (TOB), oxacillin (OX) and meropenem (MEPM) were used at the concentrations as respectively shown in Table 6 below.
With respect to the strains, Escherichia coli: ATCC 25922 (Escherichia coli ATCC 25922), Pseudomonas aeruginosa: ATCC 27853 (Pseudomonas aeruginosa ATCC 27853), Staphylococcus aureus: ATCC29213 (Staphylococcus aureus ATCC29213), Klebsiella pneumoniae: JCM 1662 (Klebsiella pneumoniae JCM 1662), enterobacteria (1): JCM 1232 (Enterobacter cloacae JCM 1232), and enterobacteria (2): JCM 1235 (Enterobacter aerogenes JCM 1235), were used.
The bacteria were cultured in media for 3 to 4 hours, and thereafter absorbances at A600 were measured. Bacterial suspensions were diluted with Mueller-Hinton broth (MHB) according to McFarland #0.5. Each strain was added so as to attain about 0.5-1×10^5 CFU/mL (final concentration) in terms of Escherichia coli. Each peptide was prepared and added to a microplate or test tubes so as to attain a final concentration of 10 μg/mL, and the bacterial suspension was added thereto. The plate was incubated at 37° C. for 3 hours, and the amount of ATP in the culture media was measured. Relative values were calculated by comparison with the negative control, and these values were regarded as the viability.

[10] = test system: Normal human dermal fibroblasts (NHDFs); format: cell-based
Experimental: Next, the effect of these polypeptides on the growth of human umbilical vein endothelial cells (HUVECs) was studied. A cell growth activity of the polypeptides was examined using Cell Counting Kit (WST-1) available from Dojindo Laboratories. As a negative control (Control), polypeptide-free group was used. Cells (human umbilical vein endothelial cells: HUVECs) were plated in a 96-well plate (0.5×10^4 cells/well/100 μL, serum 1%). About 3 hours after plating the cells, the polypeptides (1, 3, 10, 30 or 100 μg/ml) and FGF (100 ng/ml) as a positive control were individually added thereto in an amount of 100 μL. To the unstimulated group, only a medium was added in an amount of 100 μL. The plate was left to stand in a CO2 incubator for about 48 hours. Thereafter, WST-1 reagent was added to each well in an amount of 20 μL, and then the plate was left to stand in a CO2 incubator for about 2 hours. Absorbances at wavelengths of 450 nm and 620 nm were measured using Wallac 1420 ARVOsx (Program: WST-1). A value of O.D.450-O.D.620 was calculated for each measurement. […] The cell growth activity was evaluated on the basis of the ratio of Net O.D.450 of polypeptide-containing groups relative to Net O.D.450 of the unstimulated group.
Then, the effect on the growth of normal human dermal fibroblasts (NHDFs) was also studied by the same method as described above.

With `Cc1onc(-c2ccccc2)c1C(=O)N[C@@H]1C(=O)N2[C@@H]1SC(C)(C)[C@@H]2C(=O)O` [OX, oxacillin] the MIC ([1]; Staphylococcus epidermidis) was 0.15 to 0.5 µg/mL (≈ 0.374 to 1.25 µM), the MIC (MRSA (clinical strain 2)) was > 8 µg/mL and the “MIC, MSSA (clinical strain 1)” value (MSSA (clinical strain 1)) was 3/8. The MIC (MSSA (clinical strain 2)) was < 2 µg/mL, the MIC (Staphylococcus aureus) was 0.15 to 0.5 µg/mL (≈ 0.374 to 1.25 µM) and the MIC (MRSA (clinical strain 1)) was < 4 µg/mL.

With KNLRRIIRKIIHIIKKYG [AP00196] the “MIC, Pseudomonas aeruginosa (clinical strain 1)” value [2] was 16/64, the “MIC, Pseudomonas aeruginosa (clinical strain 8)” value [3] was 32/64 and the “MIC, Pseudomonas aeruginosa (clinical strain 9)” value [4] was 32/128. The “MIC, Escherichia coli” value (Escherichia coli) was 8/16, the “MIC, Staphylococcus epidermidis” value [1] was 8/16 and the “MIC, MSSA (clinical strain 1)” value (MSSA (clinical strain 1)) was 16/32. The “MIC, Fusarium solani” value (Fusarium solani) was 4/8, the “MIC, Pseudomonas aeruginosa” value (Pseudomonas aeruginosa) was 16/32 and the “MIC, Acinetobacter baumanni” value (Acinetobacter baumanni) was 4/8. The “MIC, Pseudomonas aeruginosa (clinical strain 6)” value [5] was 32/64, the “MIC, Fusobacterium nucleatum” value (Fusobacterium nucleatum) was 2/4 and the “MIC, Clostridium ramosum” value (Clostridium ramosum) was 32/64. The “MIC, Pseudomonas aeruginosa (clinical strain 12)” value [6] was 16/32.

In the case of `CC[C@H](C)[C@H](NC(=O)[C@H](CC(C)C)NC(=O)[C@H](CCCCN)NC(=O)[C@H](CC(C)C)NC(=O)[C@@H](N)CCSC)C(=O)N[C@@H](Cc1ccccc1)C(=O)N[C@@H](CC(C)C)C(=O)N[C@@H](Cc1c[nH]cn1)C(=O)N[C@@H](CCCNC(=N)N)C(=O)N[C@@H](CC(C)C)C(=O)N[C@@H](CCCCN)C(=O)N[C@@H](CCCNC(=N)N)C(=O)N[C@@H](CCSC)C(=O)N[C@@H](CCCNC(=N)N)C(=O)N[C@@H](CCCCN)C(=O)N[C@@H](CCCNC(=N)N)C(=O)N[C@@H](CC(C)C)C(=O)N[C@H](CCCCN)C(=O)N[C@@H](CCCNC(=N)N)C(=O)N[C@@H](CCCCN)C(=O)O` [SR-07] (H-MLKLIFLHRLKRMRKRL[dK]RK-OH; N-terminus and C-terminus assumed), the “Ratio of peptide remaining relative to the starting concentration, human serum, 0 min” value ([7]; 500 μg/mL, 0 min) is reported as 100, the remaining at 0.05 h, 500 μg/mL ([7]; human, human serum, 3 min, read-out: Ratio of peptide remaining relative to the starting concentration, human serum, 3 min) is reported as 98% and the remaining at 10 min, 500 μg/mL ([7]; human, human serum, 10 min, read-out: Ratio of peptide remaining relative to the starting concentration, human serum, 10 min) is reported as 64.3%. The half-life ([7]; human, serum, 500 μg/mL) was 15 min, the “Ratio of peptide remaining relative to the starting concentration, rat serum, 0 min” value ([8]; 500 μg/mL, 0 min) was 100 and the remaining at 0.05 h, 500 μg/mL ([8]; rat, rat serum, 3 min, read-out: Ratio of peptide remaining relative to the starting concentration, rat serum, 3 min) was 51%. The remaining at 10 min, 500 μg/mL ([8]; rat, rat serum, 10 min, read-out: Ratio of peptide remaining relative to the starting concentration, rat serum, 10 min) was 16.5%, the half-life ([8]; rat, serum, 500 μg/mL) was 4 min and the viability [9] was 16.5%. The “Concentration above which the polypeptide tended to exhibit toxicity, NHDFs (FIG. 4)” value [10] was > 30000 ng/mL.
